Reference: the supplement of paper PMC10307832

Legend:
Experiment in all cases: relative viability (nuclei count vs DMSO), 5 days (fraction); higher = more cells survive
BAY61-3606 + Linsitinib = compound: COC1=C(C=C(C=C1)C2=CC3=NC=CN3C(=N2)NC4=C(C=CC=N4)C(=O)N)OC [BAY61-3606] + C[C@]1(O)C[C@@H](c2nc(-c3ccc4ccc(-c5ccccc5)nc4c3)c3c(N)nccn32)C1 [Linsitinib] (partner 1 µM)
Procedure, shortened: (§1)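 Relative viability equals treated-well nuclei counts divided by vehicle-well nuclei counts. Counts came from 4× images of lung cancer cell lines grown in 1536-well plates for 5 days after pin-tool dosing on the day after seeding. Dosing used one drug alone or a fixed anchor-drug dose plus five library-drug doses (not always all listed) in √10 steps, and values are medians of duplicate plates.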

BAY61-3606 + Crizotinib = compound: COC1=C(C=C(C=C1)C2=CC3=NC=CN3C(=N2)NC4=C(C=CC=N4)C(=O)N)OC [BAY61-3606] + C[C@@H](Oc1cc(-c2cnn(C3CCNCC3)c2)cnc1N)c1c(Cl)ccc(F)c1Cl [Crizotinib] (partner 1 µM)
Procedure, shortened: as §1

BAY61-3606 + Foretinib = compound: COC1=C(C=C(C=C1)C2=CC3=NC=CN3C(=N2)NC4=C(C=CC=N4)C(=O)N)OC [BAY61-3606] + COc1cc2c(Oc3ccc(NC(=O)C4(C(=O)Nc5ccc(F)cc5)CC4)cc3F)ccnc2cc1OCCCN1CCOCC1 [Foretinib] (partner 0.25 µM)
Procedure, shortened: as §1

Doxorubicin + Pictilisib = compound: COc1cccc2c1C(=O)c1c(O)c3c(c(O)c1C2=O)C[C@@](O)(C(=O)CO)C[C@@H]3O[C@H]1C[C@H](N)[C@H](O)[C@H](C)O1 [Doxorubicin] + CS(=O)(=O)N1CCN(Cc2cc3nc(-c4cccc5[nH]ncc45)nc(N4CCOCC4)c3s2)CC1 [Pictilisib] (partner 1 µM)
Procedure, shortened: as §1

| Cell Line | relative viability (BAY61-3606 + Linsitinib; first compound 0.02 µM) | relative viability (BAY61-3606 + Linsitinib; first compound 0.06325 µM) | relative viability (BAY61-3606 + Linsitinib; first compound 0.2 µM) | relative viability (BAY61-3606 + Linsitinib; first compound 0.6325 µM) | relative viability (BAY61-3606 + Linsitinib; first compound 2 µM) | relative viability (BAY61-3606 + Crizotinib; first compound 0.02 µM) | relative viability (BAY61-3606 + Crizotinib; first compound 0.06325 µM) | relative viability (BAY61-3606 + Crizotinib; first compound 0.2 µM) | relative viability (BAY61-3606 + Crizotinib; first compound 0.6325 µM) | relative viability (BAY61-3606 + Crizotinib; first compound 2 µM) | relative viability (BAY61-3606 + Foretinib; first compound 0.02 µM) | relative viability (BAY61-3606 + Foretinib; first compound 0.06325 µM) | relative viability (BAY61-3606 + Foretinib; first compound 0.2 µM) | relative viability (BAY61-3606 + Foretinib; first compound 0.6325 µM) | relative viability (BAY61-3606 + Foretinib; first compound 2 µM) | relative viability (Doxorubicin + Pictilisib; first compound 0.003162 µM) | relative viability (Doxorubicin + Pictilisib; first compound 0.01 µM) | relative viability (Doxorubicin + Pictilisib; first compound 0.03162 µM) | relative viability (Doxorubicin + Pictilisib; first compound 0.1 µM) | relative viability (Doxorubicin + Pictilisib; first compound 0.001 µM) |
| --- | --- | --- | --- | --- | --- | --- | --- | --- | --- | --- | --- | --- | --- | --- | --- | --- | --- | --- | --- | --- |
| NCI-H2405 | 1.05 | 0.835 | 0.94 | 1.12 | 0.639 | 0.856 | 0.787 | 0.764 | 0.849 | 0.661 | 1.06 | 1.05 | 1.11 | 1.11 | 0.867 | 0.432 | 0.507 | 0.356 | 0.276 |  |
| NCI-H1944 | 1.31 | 1.17 | 1.1 | 1.13 | 1.27 | 1.08 | 1.04 | 0.912 | 1.07 | 0.637 | 0.912 | 0.815 | 0.858 | 0.886 | 0.396 | 0.346 | 0.381 | 0.345 | 0.347 | 0.327 |
| NCI-H661 | 0.868 | 0.484 | 0.627 | 0.616 | 0.405 | 0.914 | 0.806 |  | 0.984 | 0.957 | 1.06 | 1.05 | 0.99 | 1.02 | 0.941 | 0.412 | 0.378 | 0.452 | 0.324 | 0.399 |
| A549 | 0.765 | 0.63 | 0.642 | 0.77 | 0.588 | 0.758 | 0.756 | 0.712 | 0.713 | 0.406 | 1.11 | 0.989 | 0.853 | 0.969 | 0.809 | 0.355 | 0.201 | 0.0558 | 0.0454 | 0.49 |
| NCI-H650 | 1.12 | 0.934 | 0.781 | 1.02 | 0.596 | 0.725 | 0.331 | 0.701 | 0.669 | 0.47 | 1.1 | 1.02 | 1.02 | 1.09 | 0.8 | 0.886 | 0.867 | 0.734 | 0.711 | 0.989 |
| EKVX | 1.12 | 0.981 | 0.99 | 0.946 | 0.935 | 0.972 | 0.868 | 0.976 | 1.15 | 0.806 | 0.986 | 0.673 | 0.768 | 0.978 | 0.695 | 0.444 | 0.399 | 0.434 | 0.429 | 0.453 |
| SK-MES-1 | 1 | 1.13 | 1.09 | 1.09 | 0.989 | 1.01 | 0.971 | 0.962 | 0.966 | 0.876 | 1.08 | 0.918 | 0.85 | 0.96 | 0.839 | 0.395 | 0.362 | 0.342 | 0.204 | 0.368 |
| EPLC-272H | 1.18 | 1.06 | 1.07 | 1.19 | 1.26 | 1.03 | 0.762 | 0.89 | 0.87 | 0.811 | 0.705 | 0.6 | 0.789 | 0.694 | 0.397 | 0.288 | 0.354 | 0.33 | 0.336 | 0.308 |
| NCI-H2228 | 0.663 | 0.552 | 0.668 | 0.714 | 0.496 | 0.483 | 0.405 | 0.526 | 0.378 | 0.478 | 0.891 | 0.914 | 0.714 | 0.858 | 0.645 | 0.272 | 0.295 | 0.153 | 0.117 | 0.154 |
| NCI-H1299 | 0.977 | 1.03 | 0.994 | 1 | 0.89 | 0.98 | 0.961 | 1.01 | 0.992 | 0.93 | 1.12 | 1.07 | 1.11 | 1.03 | 1.07 | 0.762 | 0.699 | 0.273 | 0.196 | 0.799 |
| NCI-H2023 | 0.703 | 0.681 | 0.779 | 0.715 | 0.557 | 0.713 | 0.61 | 0.703 | 0.751 | 0.53 | 0.864 | 0.906 | 1.03 | 0.812 | 0.812 | 0.248 | 0.192 | 0.104 | 0.0731 | 0.169 |
| NCI-H322M | 1.05 | 0.946 | 0.911 | 0.925 | 0.878 | 0.901 | 0.756 | 0.853 | 0.842 | 1.01 | 1.12 | 0.91 | 0.981 | 1.03 | 0.831 | 0.448 | 0.546 | 0.561 | 0.564 | 0.589 |
| HCC-827 | 0.971 | 0.959 | 0.973 | 1.05 | 0.966 | 0.938 | 0.952 | 0.942 | 0.974 | 0.965 | 1.04 | 1.01 | 1.11 | 1.07 | 1.03 | 1.01 | 0.985 | 0.993 | 0.935 | 0.851 |
| LU99A | 0.544 | 0.548 | 0.575 | 0.501 | 0.318 | 0.562 | 0.468 | 0.555 | 0.484 | 0.305 | 0.915 | 0.656 | 0.858 | 0.63 | 0.526 | 0.323 | 0.318 | 0.272 | 0.314 | 0.349 |
| LC-2-ad | 0.971 | 0.922 | 0.897 | 0.827 | 0.562 |  | 0.384 | 0.447 | 0.406 | 0.348 | 1.05 | 0.83 | 0.971 | 1.11 | 0.653 | 0.406 | 0.417 | 0.359 | 0.227 | 0.496 |
| NCI-H460 | 1.03 | 0.77 | 0.752 | 0.822 | 0.189 | 0.952 | 0.72 | 0.913 | 0.846 | 0.182 | 1.05 | 1 | 1.05 | 0.973 | 0.945 | 0.393 | 0.392 | 0.309 | 0.249 | 0.246 |
